Experiments:
[1] = tested on: Fluoro-Jade-positive degenerating neurons; assay: Fluoro-Jade staining of degenerating neurons in hippocampus after SE; type: in vivo, C57BL6/N male mice; conditions: 72 h post-SE
Method: (§1) A cohort of animals was prepared in accordance to Example 1 to study the effects of reparixin on the acetylated alpha-tubulin, a pharmacodynamic marker of drug's neuroprotective effect, and on degenerating neurons, as identified by Fluoro-Jade staining.
(§2) vehicle group (n=6) and reparixin group (n=7). Sham mice (implanted with electrodes but not exposed to SE) were used as controls (n=6).
(§3) The animals of the different groups were treated as described in Example 2.
(§4) All mice were transcardially perfused 72 h post-SE with ice-cold phosphate buffered saline (PBS, pH 7.4), followed by 4% paraformaldehyde (PFA) in PBS. Brains were post-fixed for 90 min in 4% PFA in PBS at 4° C., then transferred to 20% sucrose in PBS overnight at 4° C. and then frozen in n-pentane for 3 min at −43° C. and stored at −80° C. until assay. Serial coronal sections (40 μm) were cut on a cryostat throughout the extension of the hippocampus (from bregma −1.22 to −2.54 mm).
(§5) Sections were processed to measure both degenerating neurons with Fluoro-Jade and acetylated alpha-tubulin (marker of microtubule stability) as described below. Three slices for each animal's brain in each experimental group/marker were matched for anteroposterior level and processed.
Labeling was carried out as previously described (Ravizza et al., 2008). Briefly, sections were dried in ethanol (100%, 75% and 50%) and rehydrated in distilled water. […]

[2] = tested on: chronic epileptic mice with established spontaneous seizures; assay: Effect of reparixin on established seizures in chronic epileptic mice; type: in vivo
Method: The objective of this experiment was to assess whether reparixin affects seizure frequency or duration in chronic epileptic mice with established spontaneous seizures. Status epilepticus was induced in 18 mice prepared as described in Example 1a) by amygdala injection of kainic acid and EEG was recorded for 14 days to determine disease onset as described in Example 2. Then, mice were disconnected from EEG and returned to their home cages until day 45 at which time they were again EEG recorded for 14 days to determine their individual baseline of spontaneous seizures. At the end of this period, mice were temporarly disconnected for minipumps implantation. Minipumps (ALZET model 2002; 0.5 μl/h) were filled with Reparixin (7.5/mg/h/kg, n=9) or its vehicle (n=9) according to the manifacturer's instructions and implanted subcutaneously in the back of the mice under general gas anaesthesia (1-3% isoflurane in O2). Upon awakening from anesthesia, mice were returned to their home cages for monitoring the EEG for additional 14 days during treatment. At the end of treatment period (as determined by minipump exhaustion) venous blood was collected from the cheek and plasma was isolated for drug level measurement. Mice were subsequently monitored during a drug wash-out period of 14 days. A group of sham mice (not exposed to SE but handled as experimental mice) were implanted with minipumps filled with vehicle (n=6).

[3] = tested on: murine model of acquired epilepsy triggered by de novo status epilepticus; assay: Effect of reparixin on onset and development of epilepsy (intra-amygdala kainic acid status epilepticus, EEG recording); type: in vivo, C57BL6/N male mice
Method: A murine model of acquired epilepsy triggered by de novo status epilepticus was used in the experiments (lori et al, Neurobiol Dis 2017, 99 12-23).
In details, eight week-old C57BL6/N male mice (˜25 g; Charles River, calco, Italy) were used. Mice were maintained in SPF facilities and housed at a constant room temperature (23° c) and relative humidity (60±5%) with free access to food and water and a fixed 12 h light/dark cycle. All experimental procedures were conducted in conformity with institutional guidelines that are in compliance with national (D.L. n.26, G.U. Mar. 4, 2014) and international laws and policies (EEC council directive 86/609, OJ L 358, 1, Dec. 12, 1987, guide for the care and use of laboratory animals, U.S. national research council, 1996), and were reviewed and approved by the intramural ethical committee.
Mice were surgically implanted under general gas anaesthesia (1-3% isoflurane in O2) and stereotaxic guidance. A 23-gauge guide cannula was unilaterally positioned on top of the dura mater for the intra-amygdala injection of kainic acid (KA) (from bregma, mm: nose bar 0; anteroposterior, −0.9; lateral, −3.1) in accordance with lori et al. (2017).
For seizure recording, a nichrome-insulated bipolar depth electrode (60 μm OD) was implanted in the dorsal hippocampus (from bregma, mm: nose bar 0; anteroposterior—1.8, lateral 1.4 and 1.8 below dura mater) contralateral to the injected amygdala and a cortical electrode was placed onto the somatosensory cortex in the ipsilateral hemisphere. Finally, two screw electrodes were positioned over the nasal sinus and the cerebellum, and used as ground and reference electrodes, respectively. Electrodes were connected to a multipin socket and secured to the skull by acrylic dental cement.
Minipumps (Alzet pump 1007D, 100 μ/minipump or Alzet pump 2002, 200 μ/minipump; Charles River, Calco, Italy) filled with reparixin dissolved in a vehicle consisting in sterile saline (NaCl 0.9%) solution (vehicle) (reparixin group) or vehicle (sham control group and vehicle group) were implanted subcutaneously in the back of the mice. Briefly, a small incision was made in the skin between the scapulae and a pocket was formed by spreading apart the connective tissues. After minipump positioning, the skin was carefully sutured to avoid any discomfort to the animal.
One week after surgery, mice were connected to the EEG set up (TWIN EEG recording system connected with a comet AS-40 32/8 amplifier:sampling rate 400 hz, high-pass filter 0.3 hz, low-pass filter 70 hz, sensitivity 2000 my/cm; Grass-telefactor, West Warwick, USA) in order to record an EEG baseline before the induction of status epilepticus (SE). […]
Reparixin, at the dose of 7.5 mg/h/kg (reparixin group), or vehicle (sham and vehicle group) were administered by continuous infusion using osmotic minipumps as described in example 1b).
After 24 hours from infusion, status epilepticus was induced in the vehicle group and reparixin group by amygdal injection of kaininc acid.
In details, kainic acid (KA, 0.3 μg in 0.2 μl; Sigma-Aldrich, S. Louis, USA) was dissolved in […] phosphate-buffered saline (PBS, pH 7.4) and injected into the right basolateral amygdala in freely moving mice using a needle protruding 4.1 mm below the implanted cannula in order to evoke SE. SE was defined by the appearance of continuous spike activity with a frequency>1 Hz intermixed with high amplitude and frequency discharges lasting for at least 5 s, with a frequency of >8 Hz. […]

[4] = tested on: acetylated alpha-tubulin; assay: Acetylated alpha-tubulin immunostaining in hippocampus after SE; type: in vivo, C57BL6/N male mice; conditions: as assessed 48 h and 72 h after SE; 7.5 mg/h/kg minipump; reparixin n=7, vehicle n=4
Method: as §1, §2, §3
as §4, with “All mice were transcardially perfused 72 h post-SE with ice-cold phosphate buffered saline (PBS, pH 7.4), followed by 4% paraformaldehyde (PFA) in PBS.” left out
as §5
Slices were blocked for 30 min at 4° C. in blocking buffer (0.1% Triton-X100, 3% BSA in PBS; Invitrogen) then incubated with primary antibody against acetylated alpha-tubuline 1:2000 (#24610 Abcam) overnight at 4 C. […]

CC(C)Cc1ccc([C@@H](C)C(=O)NS(C)(=O)=O)cc1 [reparixin, R-(-)-2-(4-isobutylphenyl)propionyl methansulfonamide]
mice without Fluoro-Jade positive neurons in CA4 ([1]; vehicle 1 out of 5 without neurodegeneration, p=0.29 by Fisher test): 4 out of 7 | mice without Fluoro-Jade positive neurons in CA1 pyramidal cell layer ([1]; vehicle 5 out of 5 showed neurodegeneration, p<0.05 by Fisher test): 5 out of 7 | average SRS duration ([2]; 7.5 mg/h/kg s.c. minipump for 14 days, n=9): not modified | reduction of the number of spontaneous seizures compared to pre-injection baseline ([2]; 7.5 mg/h/kg s.c. minipump for 14 days, n=9, p<0.05 one-way ANOVA, Tukey's test): about 50% | responders (at least 30% seizure reduction during treatment vs pre-treatment baseline) ([2]; 7.5 mg/h/kg s.c. minipump for 14 days, waterfall plot): 7 out of 9 | number of seizures upon drug discontinuation ([2]; drug wash-out period of 14 days): returned to pre-injection baseline level | onset time of SE ([3]; 7.5 mg/h/kg continuous s.c. minipump infusion started 24 h before kainic acid, vs vehicle group, n=24/group): did not modify | onset of spontaneous seizures (epilepsy onset, Kaplan-Meyer curve) ([3]; 7.5 mg/h/kg minipump for 7 days post-SE, p<0.05 Log-rank test vs vehicle): significant delay | incidence of acute symptomatic seizures during 48 h post-SE ([3]; 7.5 mg/h/kg minipump, all animals exposed to SE, p<0.05 by Fisher's test vs vehicle (62% of mice)): 20 % of mice | number of spontaneous recurrent seizures (SRS) during drug treatment ([3]; 48 h-7 d post-SE, vs vehicle group, p<0.05 Mann-Whitney test): significant reduction | mice that died during epilepsy development ([3]; reparixin group n=9, vehicle group 3 out of 12 died because of severe seizures): 1 out of 9 | immunohistochemical signal of acetylated alpha-tubulin in the mouse hippocampus [4]: significantly reduced
